Here are results for 18 compounds from patent US7625905B2, “Octahydro-pyrrolo[3,4-c]pyrrole CCR5 receptor antagonists” (Roche Palo Alto LLC, priority 2006, dated 2009).

Assay [1] has as its target T1, CCR5 (Homo sapiens, UniProt P51681). The assay is described as follows: CCR5-mediated CCF (cell-cell fusion) assay, Hela-R5 / CEM-NKr-CCR5-Luc luciferase readout. The class given is cell-based. Further details: host or cells: CEM-NKr-CCR5-Luc cells, co-cultured with Hela-R5 cells expressing gp160 and Tat. To be noted: Hela-R5 and CEM-NKr-CCR5-Luc co-culture 24 hrs. How it is done:
The capacity for novel compounds of the present invention to bind to the CCR5 receptor and thereby antagonize CCR5 function can be evaluated with assay systems known in the art.
Hela-R5 cells (express gp160 from R5-tropic virus and HIV-1 Tat) were plated in 384 well white culture plates (BD Bioscience, Palo Alto, Calif.) at 7.5×10^3 cells per well in phenol red-free Dulbecco's Modified Eagle Medium (DMEM) supplemented with 10% FBS, 1× Pen-Strep, 300 μg/ml G418, 100 μg/ml hygromycin, and 1 μg/ml Doxycycline (Dox) (BD Bioscience, Palo Alto, Calif.), using Multimek (Beckman, Fullerton, Calif.) and incubated at 37° C. overnight to induce the expression of gp160. Ten μl diluted compounds in medium containing 5% DMSO were added to the cells, followed by the addition of CEM-NKr-CCR5-Luc (obtained from NIH AIDS Research & Reference Reagents Program) that expresses CD4 and CCR5 and carries a HIV-2 long terminal repeat (LTR)-driven luciferase reporter gene at 1.5×10^4 cells/15 μL/well and incubated for 24 hrs. At the end of co-culture, 15 μl of Steady-Glo luciferase substrate was added into each well, and the cultures were sealed and gently shaken for 45 min. The luciferase activity were measured for 10 sec per well as luminescence by using 16-channel TopCount NXT (PerkinElmer, Shelton, Conn.) with 10 min dark adaptation and the readout is count per second (CPS). For the drug interaction experiments, small molecule compounds or antibodies were serially diluted in serum-free and phenol red-free RPMI containing 5% dimethyl sulfoxide (DMSO) (CalBiochem, La Jolla, Calif.) and 1× Pen-Strep. Five μl each of the two diluted compound or mAb to be tested for drug-drug interactions were added to the Hela-R5 cells right before the addition of target cells.

Assay [2] concerns the target T1, CCR5. Description: Human CCR5 receptor-ligand binding (RANTES) assay. To be noted: 125I RANTES 0.1 nM, CHO-Gα16-hCCR5 cells. Further details: expressed in transfected cells. How it is done: The construct was transfected into CHO-Gα16 cells by using Fugene Reagent (Roche).
Adherent cells in […] tissue culture flask (˜90% confluent) were harvested using 1 mM EDTA in PBS (phosphate-buffered saline) without Ca^2+ and Mg^2+. Cells were washed twice with PBS containing no Ca^2+ and Mg^2+.
Eighty μl CHO-Gα16-hCCR5 (1×10^6/ml) cells were added to 96 well plates.
The compound dilutions were made in PBS, 1% BSA. Total reaction volume was 100 μl per well. The test compounds were added to the cells prior to the addition of radioligand.
After incubation, the cells were harvested onto GF/C filter plates using Packard cell harvester. Filters were pretreated with 0.3% PEI/0.2% BSA for 30 min. The filter plate was washed rapidly 5 times with 25 mM HEPES, 500 mM NaCl, 1 mM CaCl2 and 5 mM MgCl2 adjusted to pH 7.1. Plates were dried in oven (70° C.) for 20 min, added with 40 μl scintillation fluid and sealed with Packard TopSeal-A. Packard Top Count was used to measure of the radioactivity for 1 min per well.
Total binding was determined with control wells added with radioisotope and buffer and the non-specific binding was determined using an excess cold RANTES to some of the control wells. Specific binding was determined by subtracting the non-specific form total binding. […] IC50 values were determined using varying concentrations of the test ligand in triplicates and the data was analyzed using GraphPad Prism (GraphPad, San Diego, Calif.).

For assay [3], the system named is collagen induced arthritis. To be noted: collagen-induced arthritis model; cited from earlier work.
Assay [4] deals with T1, CCR5. The assay is described as follows: Chemotaxis assay with L1.2hCCR5 cells. To be noted: Inhibition of RANTES stimulated chemotaxis. Further details: expressed in transfected cells. The format is cell-based. The text has this:
A chemotaxis assay is a functional assay which measures the ability of a non-adherent cell line expressing human CCR5 receptor to migrate across a membrane in response to either test compounds or natural attractant ligand(s) (i.e., RANTES, MIP-1β). Generally, chemotaxis assays monitor the directional movement or migration of a suitable cell (such as a leukocyte (e.g., lymphocyte, eosinophil, basophil)) into or through a barrier (e.g., endothelium, a permeable filter membrane), toward, from a first surface of the barrier toward an opposite second surface containing attractant ligands. Membranes or filters provide convenient barriers to monitor the directional movement or migration of a suitable cell into or through a filter, toward increased levels of an attractant. […]
After the incubation period, the cells are scraped off the filter and the plates are spun in a table top centrifuge at 2,000 rpm for 10 min. The filter is then removed and the density of the cells that have migrated to the bottom wells is detected using CyQUANT^R cell proliferation assay kit (Invitrogen) and the Spectra MAX GeminiXS plate reader (Molecular Devices) according to the manufacturers' instructions. Using the fluorescence measurements the percent migration is determined by % migration=[1−(max−obs)/(max−min)]×100. […] This is calculated with Excel Fit.

T1 sequence (P51681 whole entry, the tested form may be a part): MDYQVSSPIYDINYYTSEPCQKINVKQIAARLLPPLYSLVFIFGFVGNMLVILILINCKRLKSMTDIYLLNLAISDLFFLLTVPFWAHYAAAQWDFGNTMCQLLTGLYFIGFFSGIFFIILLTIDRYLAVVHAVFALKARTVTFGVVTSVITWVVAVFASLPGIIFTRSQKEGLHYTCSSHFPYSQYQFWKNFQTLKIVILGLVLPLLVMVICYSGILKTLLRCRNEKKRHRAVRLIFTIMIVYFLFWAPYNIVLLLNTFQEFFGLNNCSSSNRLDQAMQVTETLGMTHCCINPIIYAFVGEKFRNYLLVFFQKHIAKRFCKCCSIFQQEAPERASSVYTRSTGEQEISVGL

A word on the IC50: it is the concentration at which inhibition is half-maximal. Low readings indicate inhibition by little substance, high ones a need for much substance. With `Cc1ncnc(C)c1C(=O)N1CC2CN(CCC3(c4ccccc4)CN(S(=O)(=O)C4CCCC4)C3)CC2C1` (stereo not shown) [II-22, {5-[2-(1-Cyclopentanesulfonyl-3-phenyl-azetidin-3-yl)-ethyl]-hexahydro-pyrrolo[3,4-c]pyrrol-2-yl}-(4,6-dimethyl-pyrimidin-5-yl)-methanone], the figures for the concentration for half-maximal inhibition (IC50) in assay [1] and in assay [2] were 458 nM and 27.1 nM, respectively.
Taken in the same sequence, the figures for `Cc1ncnc(C)c1C(=O)N1CC2CN(CCC3(c4ccccc4)CN(C(=O)C4CCC(F)(F)CC4)C3)CC2C1` (stereo not shown) [II-39] were 9.5 nM and 18.8 nM.
In the case of `Cc1ncnc(C)c1C(=O)N1CC2CN(CCC3(c4ccccc4)CN(C(=O)C4(C(F)(F)F)CC4)C3)CC2C1` (stereo not shown) [II-15], the half-inhibitory concentration (IC50) came out at 486 nM in assay [1] and 51.5 nM in assay [2].
For `Cc1ncnc(C)c1C(=O)N1CC2CN(CCC(c3ccccc3)C3CN(C(=O)C(C)C)C3)CC2C1` (stereo not shown) [IV-10] the same measures were 458 nM and 244 nM.
For `Cc1ncnc(C)c1C(=O)N1CC2CN(CCC3(c4cccc(F)c4)CCN(C(=O)c4cccc(S(=O)(=O)N(C)C)c4)CC3)CC2C1` (stereo not shown) [I-19] the same measures were 393 nM and 50.9 nM.
Take `Cc1ccc(-c2ccc3c(c2)C=C(C(=O)Nc2ccc(C[N+](C)(C)C4CCOCC4)cc2)CCC3)cc1.[Cl-]` [TAK-779]: in assay [3], the “incidence and severity of arthritis” value is “reduce both the incidence and severity of arthritis”; the “infiltration of inflammatory CCR5+ T-cells into the joint” value is “inhibited”.
Consider `Cc1ncnc(C)c1C(=O)N1CC2CN(CCC3(c4cccc(F)c4)CCN(C(=O)c4ccccc4)CC3)CC2C1` (stereo not shown) [I-3], for which the IC50 worked out at 306 nM in assay [1] and 77.6 nM in assay [2].
For `Cc1cc(=O)oc(C)c1C(=O)N1CC2CN(CCC3(c4ccccc4)CN(C(=O)C4CCC(F)(F)CC4)C3)CC2C1` (stereo not shown) [II-33] the same measures were 2.6 nM and 11.3 nM.
Regarding `Cc1ncnc(C)c1C(=O)N1CC2CN(CCC(c3ccccc3)C3CCN(S(C)(=O)=O)CC3)CC2C1` (stereo not shown) [V-12], half-maximal inhibition in assay [4] (IC50) was put at 765 nM. This lies in the sub-micromolar range.
For the compound `Cc1ncnc(C)c1C(=O)N1CC2CN(CCC3(c4ccccc4)CN(S(=O)(=O)C(C)C)C3)CC2C1` (stereo not shown) [II-19], the IC50 in assay [2] turned out to be 105 nM.
In the case of `Cc1ncnc(C)c1C(=O)N1CC2CN(CCC3(c4ccccc4)CCN(C(=O)OC(C)(C)C)CC3)CC2C1` (stereo not shown) [I-1, tert-Butyl 4-{2-[5-(4,6-dimethyl-pyrimidine-5-carbonyl)-hexahydro-pyrrolo[3,4-c]pyrrol-2-yl]-ethyl}-4-phenyl-piperidine-1-carboxylate], the half-inhibitory concentration (IC50) in assay [1] and in assay [2] was 835 nM in each case.
For the compound `COC(=O)N1CCC(C(CCN2CC3CN(C(=O)c4c(C)ncnc4C)CC3C2)c2ccccc2)CC1` (stereo not shown) [V-7, 4-{3-[5-(4,6-Dimethyl-pyrimidine-5-carbonyl)-hexahydro-pyrrolo[3,4-c]pyrrol-2-yl]-1-phenyl-propyl}-piperidine-1-carboxylic acid methyl ester], the IC50 amounted to 744 nM in assay [1] and 102 nM in assay [2].
For `Cc1cc(C#N)nc(C)c1C(=O)N1CC2CN(CCC3(c4ccccc4)CCN(C(=O)C(C)(C)C)C3)CC2C1` (stereo not shown) [III-8] the same measures were 360 nM and 68.8 nM.
Taken in the same sequence, the figures for `Cc1ncnc(C)c1C(=O)N1CC2CN(CCC3(c4ccccc4)CN(C(=O)CC4CCCC4)C3)CC2C1` (stereo not shown) [II-6] were 136 nM and 27.7 nM.
Take “1-(4-{3-[5-(4,6-Dimethyl-pyrimidine-5-carbonyl)-hexahydro-pyrrolo[3,4-c]pyrrol-2-yl]-1-phenyl-propyl}-piperidin-1-yl)-2-methyl-propan-1-one [V-15]”: the half-maximal inhibitory concentration (IC50) in assay [1] worked out at 202 nM; in assay [2], 8.2 nM.
For `Cc1ncnc(C)c1C(=O)N1CC2CN(CCC(c3cccc(F)c3)C3CN(S(=O)(=O)c4cccc(F)c4)C3)CC2C1` (stereo not shown) [IV-14] the same measures were 4.2 nM and 38.6 nM.
For `Cc1ncnc(C)c1C(=O)N1CC2CN(CCC3(c4ccccc4)CCN(C(=O)c4ccc(S(N)(=O)=O)cc4)CC3)CC2C1` (stereo not shown) [I-9] the same measures were 2500 nM and 500 nM.
For `Cc1ncnc(C)c1C(=O)N1CC2CN(CCC3(c4ccccc4)CCN(C(=O)c4cccc(S(=O)(=O)N(C)C)c4)CC3)CC2C1` (stereo not shown) [I-14] the same measures were 1200 nM and 48.4 nM.
